Entries after “also recorded” stand apart in the source; their conditions may differ.
How the values were obtained:
MDCK cells = test: Toxicity observed in the cell scattering screening; type: cell-based
Experimental: (§1) For scattering assays, MDCK cells were pre-incubated with compounds for 2 hours at 0.1-100 μM concentrations at 37° C. in a humidified atmosphere of 5% CO2, followed by 24 hr stimulation with 20 ng/ml HGF (R&D Systems), as previously described (Patane et al., Biochem Biophys Res Commun 375, 184-189, 2008). The cells were further incubated at 37° C. in an atmosphere of 5% CO2 for 24-48 hours, washed with phosphate-buffered saline (PBS; Gibco BRL), and fixed in PFA (Sigma). The quantification of scattering response was performed by counting the number of cells with scattered morphology in 30 independent colonies. The […] corresponds to the concentration of compounds leading to a 50% inhibition of Met-triggered cell scattering. Active compounds were assayed to impair scattering response also on human breast MCF10A cells following the same procedure. For survival assays, GTL-16, HepG2 and U-87 cells were cultured in serum-free media for 24 hours prior to compound addition for 48 hours. Viability was assessed with the Cell Titer Glo Luminescent Assay (Promega). For in vitro tumorigenesis, soft agar growth assays were preformed using GTL-16, HepG2, and U-87 cells, as previously described (Patane et al., Cancer Res 66, 4750-4757, 2006).
Compounds of examples 1 (XIII), 2 (XIV), 4 (XVI), 5 (XVII), and 6 (XVIII) in particular elicit inhibitory activity on Met-triggered cell scattering. […] The SU11274 (Met inhibitor; Sugen) was used as reference compound. […] These findings were further supported by analysing the inhibitory activity of compounds on breast cells. […] Altogether, these studies identify a new class of compounds of general formula (I), which are able to interfere with Met-triggered cell scattering.

HepG2 cells = test: Soft agar anchorage-independent growth (in vitro tumorigenesis), HepG2; type: cell-based; details: Homo sapiens, read-out: HepG2 IC 50
Experimental: (§2) MDCK cells were grown in Dulbecco's modified Eagle's medium (DMEM) (Gibco BRL) containing 4 mM L-glutamine and supplemented with 2% (v/v) foetal bovine serum (Gibco BRL), 100 U/mL penicillin, and 100 μg/mL streptomycin. Cells were plated at a density of 1000 cells per well in 24-well microplates and allowed to settle overnight at 37° C. in a humidified atmosphere of 5% CO2 prior to treatments. MCF10A human breast cells, MDA-MB231 human breast cancer cells, GTL-16 human gastric carcinoma cells, HepG2 human hepatocellular carcinoma cells, U-87 human glioblastoma-astrocytoma cells and LLC Lewis lung carcinoma cells were grown in RPMI medium (Gibco BRL) containing 4 mM L-glutamine and supplemented with 2% (v/v) foetal bovine serum (Gibco BRL), 100 U/mL penicillin, and 100 μg/mL streptomycin and kept at 37° C. in a humidified atmosphere of 5% CO2.
For scattering assays, MDCK cells were pre-incubated with compounds for 2 hours at 0.1-100 μM concentrations at 37° C. in a humidified atmosphere of 5% CO2, followed by 24 hr stimulation with 20 ng/ml HGF (R&D Systems), as previously described (Patane et al., Biochem Biophys Res Commun 375, 184-189, 2008). […] The quantification of scattering response was performed by counting the number of cells with scattered morphology in 30 independent colonies. […] Viability was assessed with the Cell Titer Glo Luminescent Assay (Promega). […]

GTL-16 cells = test: Soft agar anchorage-independent growth (in vitro tumorigenesis), GTL-16; type: cell-based, human
Experimental: as §2
as §1, with “2006). […]” for “2006).”

[1] = test system: Met phosphorylation, HepG2 cells; test: Met phosphorylation upon HGF stimulation in HepG2 cells; type: cell-based, human
Experimental: After starvation, cells were pretreated with inhibitors, then stimulated with HGF, and total extracts were analyzed as described (Maina et al., Mol Cell 7, 1293-1306, 2001). Antibodies used were anti-tubulin (Sigma), anti-phospho Y1234-1235-Met, anti-Akt, anti-phospho-Akt, anti-phospho-Gab1, anti phosphor-ErbBs, anti-phospho-PDGFR, anti-PDGFRs, anti-ERKs (Cell Signaling), anti-ErbBs, anti-Met (Santa Cruz).
Activation of Met by HGF can be biochemically evaluated by following its phosphorylation levels and activation of downstream targets. We started to biochemically characterise the inhibitory properties of identified compounds by following Met phosphorylation and its downstream targets in HepG2 cells. […] These findings were further supported using other cell lines, such as MDA-MB231 human breast cancer cells (FIG. 2).

[2] = Toxicity evaluation in vivo (body and organ weight); design: species or system mice
Experimental: The weight of nude mice treated with the compound of example 4 (30 mg kg-1) or vehicle was measured before, during and after treatment. To evaluate the weight of heart, spleen, kidney, and liver, mice were sacrified after 21 days of treatment, organs were dissected, rinsed in PBS, and weight was measured.
We evaluated whether compounds of general formula elicited toxic effects in vivo by following mouse weight before, during and after treatment. […] We also evaluated the weight of heart, spleen, kidney and liver of mice treated with the compound of example 4 or vehicle.

In the case of `O=C(Cc1cc(C(F)(F)F)cc(C(F)(F)F)c1)N[C@@H](Cc1ccccc1)C(=O)Nc1ccc(-c2cn3c(n2)sc2ccccc23)cc1` [Example 4, (S)-2-(3,5-bis(trifluoromethyl)phenylacetamido)-3-phenyl-N-[4-(imidazo[2,1-b]benzothiazol-2-yl)phenyl]propanamide], the “Concentration at which toxicity was or was not observed” value (MDCK cells) is reported as 100 µM, the Toxicity (MDCK cells; Table 1, scattering screening) is reported as >50 µM and the IC50 (HepG2 cells) is reported as 321 nM. For the same molecule, the Met-triggered anchorage-independent growth (GTL-16 cells; GTL-16 cells, dose dependent, listed as XVI) was “severely reduced; also recorded: severely affected”, the IC50 (GTL-16 cells; Homo sapiens, soft agar growth, GTL-16) was 811 nM and the Met phosphorylation [1] was “significantly reduced”. For the same molecule, the “weight of heart, spleen, kidney and liver” value ([2]; after 21 days of treatment, versus vehicle) was “No differences” and the weight of mice ([2]; daily treated, 30 mg kg-1, compared to vehicle) was “No significant changes”.

From patent publication US8822698B2, “Aminoacid derivatives, their process of preparation and their therapeutical uses as inhibitors of oncogenic signals by the Met family” (Universite D'Aix-Marseille, priority 2009, dated 2014)
